Experimental data reported in ChEMBL document CHEMBL5321294, “Evolution of Slow-Binding Inhibitors Targeting Histone Deacetylase Isoforms” (J Med Chem, 2023).
Values belong to the compound of their own block, whether it stands above or below them. Non-standard residues stand in square brackets, D forms with d. Residues, ends and D or L forms follow the SMILES beside them. *: point of attachment. Asu = N[C@@H](CCCCCC(=O)O)C(=O)O; NHOH = ON*

How the values were obtained:
Histone deacetylase 3 [1] = molecular target: T1, Histone deacetylase 3 (Homo sapiens, UniProt O15379); test: Binding affinity to human HDAC3 assessed as binding rate constant (Kon)
Histone deacetylase 1 [2] = molecular target: T2, Histone deacetylase 1 (Homo sapiens, UniProt Q13547); test: Binding affinity to human HDAC1 assessed as half life
Homo sapiens [3] = organism: Homo sapiens; test: Selectivity index, ratio of IC50 for Inhibition of human HDAC3 to IC50 for Inhibition of human HDAC1
Homo sapiens [4] = organism: Homo sapiens; test: Selectivity index, ratio of IC50 for Inhibition of human HDAC3 to Inhibition of human IC50 for HDAC2
Histone deacetylase 3 [5] = molecular target: T1, Histone deacetylase 3; test: Binding affinity to human HDAC3 assessed as dissociation rate constant (Koff)
Histone deacetylase 2 [6] = molecular target: T3, Histone deacetylase 2 (Homo sapiens, UniProt Q92769); test: Binding affinity to human HDAC2 assessed as half life
Histone deacetylase 2 [7] = molecular target: T3, Histone deacetylase 2; test: Binding affinity to human HDAC2 assessed as residence time
Histone deacetylase 3 [8] = molecular target: T1, Histone deacetylase 3; test: Binding affinity to human HDAC3 assessed as half life
Histone deacetylase 3 [9] = molecular target: T1, Histone deacetylase 3; test: Binding affinity to human HDAC3 assessed as residence time
Histone deacetylase 3 [10] = molecular target: T1, Histone deacetylase 3; test: Binding affinity to HDAC3 (unknown origin) assessed as residence time
Histone deacetylase 3 [11] = molecular target: T1, Histone deacetylase 3; test: Binding affinity to HDAC3 (unknown origin) assessed as binding constant(k2)
Histone deacetylase 3 [12] = molecular target: T1, Histone deacetylase 3; test: Binding affinity to HDAC3 (unknown origin) assessed as binding constant(k-2)
Histone deacetylase 3 [13] = molecular target: T1, Histone deacetylase 3; test: Binding affinity to HDAC3 (unknown origin) assessed as inhibition constant(ki,1)
[14] = molecular target: T4, Protein deacetylase HDAC6 (Homo sapiens, UniProt Q9UBN7); test: Binding affinity to recombinant human HDAC6 using Ac-Leu-Gly-Lys(Ac)-AMC as substrate measured after 60 mins assessed as inhibition constant (ki,1) by fluorescence based assay
T4 sequence (Q9UBN7 whole entry): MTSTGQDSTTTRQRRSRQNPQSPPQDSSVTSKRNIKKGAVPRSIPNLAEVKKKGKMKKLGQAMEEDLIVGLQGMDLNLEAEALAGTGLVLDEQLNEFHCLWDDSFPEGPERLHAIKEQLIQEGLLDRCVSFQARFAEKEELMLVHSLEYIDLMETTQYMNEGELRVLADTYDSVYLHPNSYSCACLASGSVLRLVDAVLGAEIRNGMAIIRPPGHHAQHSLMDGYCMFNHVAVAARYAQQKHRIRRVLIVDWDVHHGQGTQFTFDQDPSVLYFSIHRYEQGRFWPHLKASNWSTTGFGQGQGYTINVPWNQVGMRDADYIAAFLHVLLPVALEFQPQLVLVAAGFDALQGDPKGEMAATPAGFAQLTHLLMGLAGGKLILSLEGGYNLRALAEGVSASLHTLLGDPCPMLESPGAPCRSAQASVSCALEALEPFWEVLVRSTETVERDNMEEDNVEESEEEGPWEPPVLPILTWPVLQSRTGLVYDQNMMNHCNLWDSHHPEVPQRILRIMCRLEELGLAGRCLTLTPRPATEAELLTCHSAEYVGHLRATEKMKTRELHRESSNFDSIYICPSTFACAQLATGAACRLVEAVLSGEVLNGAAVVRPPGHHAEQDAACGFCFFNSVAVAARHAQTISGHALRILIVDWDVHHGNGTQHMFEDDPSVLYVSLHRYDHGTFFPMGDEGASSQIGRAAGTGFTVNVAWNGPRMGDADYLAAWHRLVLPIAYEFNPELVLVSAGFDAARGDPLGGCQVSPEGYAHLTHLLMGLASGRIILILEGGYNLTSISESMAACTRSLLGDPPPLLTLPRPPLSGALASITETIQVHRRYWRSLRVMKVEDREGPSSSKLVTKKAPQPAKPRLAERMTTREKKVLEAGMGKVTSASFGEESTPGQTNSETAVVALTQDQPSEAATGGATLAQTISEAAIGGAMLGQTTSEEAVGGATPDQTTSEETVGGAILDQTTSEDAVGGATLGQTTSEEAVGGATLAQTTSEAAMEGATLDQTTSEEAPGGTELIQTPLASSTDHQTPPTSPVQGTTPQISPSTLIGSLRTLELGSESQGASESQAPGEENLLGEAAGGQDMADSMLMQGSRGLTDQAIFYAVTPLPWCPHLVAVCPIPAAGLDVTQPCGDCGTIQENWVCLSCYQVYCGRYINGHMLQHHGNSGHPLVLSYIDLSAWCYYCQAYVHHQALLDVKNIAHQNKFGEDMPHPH

[15] = molecular target: T5, Protein deacetylase HDAC6 (Homo sapiens) (UniProt Q9UBN7); test: Binding affinity to recombinant human HDAC6 using Ac-Leu-Gly-Lys(Ac)-AMC as substrate measured after 60 mins assessed as binding constant (k-2) by fluorescence based assay
T5 sequence (whole entry): T4 sequence (Q9UBN7 whole entry)

[16] = molecular target: T4, Protein deacetylase HDAC6; test: Binding affinity to recombinant human HDAC6 using Ac-Leu-Gly-Lys(Ac)-AMC as substrate measured after 60 mins assessed as inhibition constant by fluorescence based assay
Histone deacetylase 3 [17] = molecular target: T1, Histone deacetylase 3; test: Binding affinity to HDAC3 (unknown origin) assessed as inhibition constant
[18] = molecular target: T5, Protein deacetylase HDAC6 (Homo sapiens); test: Binding affinity to recombinant human HDAC6 using Ac-Leu-Gly-Lys(Ac)-AMC as substrate assessed as residence time
[19] = molecular target: T5, Protein deacetylase HDAC6 (Homo sapiens); test: Binding affinity to recombinant human HDAC6 using Ac-Leu-Gly-Lys(Ac)-AMC as substrate measured after 60 mins assessed as binding constant (k2) by fluorescence based assay
Histone deacetylase 1 [20] = molecular target: T2, Histone deacetylase 1; test: Binding affinity to human HDAC1 using AcLGK (Ac) -AMC as substrate assessed as residence time
Histone deacetylase 2 [21] = molecular target: T3, Histone deacetylase 2
Description: Binding affinity to HDAC2 (unknown origin) using Ac-LGKac-AMC as substrate assessed as residence time

Histone deacetylase 1 [22] = molecular target: T2, Histone deacetylase 1
Description: Binding affinity to HDAC1 (unknown origin) using Ac-LGKac-AMC as substrate assessed as half life

Histone deacetylase 3 [23] = molecular target: T1, Histone deacetylase 3
Description: Binding affinity to HDAC3 (unknown origin) using Ac-LGKac-AMC as substrate assessed as half life

Histone deacetylase 2 [24] = molecular target: T3, Histone deacetylase 2; remark: listed apart in the source
Description: Binding affinity to HDAC2 (unknown origin) using Ac-LGKac-AMC as substrate assessed as half life

Histone deacetylase 2 [25] = molecular target: T3, Histone deacetylase 2; remark: listed apart in the source
Histone deacetylase 3 [26] = molecular target: T1, Histone deacetylase 3; remark: listed apart in the source
[27] = Half life in C57BL/6 mouse brain at 45 mg/kg, ip; assay type: ADME, organism-based
Histone deacetylase 1 [28] = molecular target: T2, Histone deacetylase 1; test: Binding affinity to HDAC1 (unknown origin) assessed as dissociation constant (Koff)
Histone deacetylase 1 [29] = molecular target: T2, Histone deacetylase 1; test: Binding affinity to HDAC1 (unknown origin) assessed as binding constant (Kon)
Histone deacetylase 1 [30] = molecular target: T2, Histone deacetylase 1; remark: listed apart in the source
Histone deacetylase 1 [31] = molecular target: T2, Histone deacetylase 1; remark: listed apart in the source

T1 sequence (O15379 whole entry): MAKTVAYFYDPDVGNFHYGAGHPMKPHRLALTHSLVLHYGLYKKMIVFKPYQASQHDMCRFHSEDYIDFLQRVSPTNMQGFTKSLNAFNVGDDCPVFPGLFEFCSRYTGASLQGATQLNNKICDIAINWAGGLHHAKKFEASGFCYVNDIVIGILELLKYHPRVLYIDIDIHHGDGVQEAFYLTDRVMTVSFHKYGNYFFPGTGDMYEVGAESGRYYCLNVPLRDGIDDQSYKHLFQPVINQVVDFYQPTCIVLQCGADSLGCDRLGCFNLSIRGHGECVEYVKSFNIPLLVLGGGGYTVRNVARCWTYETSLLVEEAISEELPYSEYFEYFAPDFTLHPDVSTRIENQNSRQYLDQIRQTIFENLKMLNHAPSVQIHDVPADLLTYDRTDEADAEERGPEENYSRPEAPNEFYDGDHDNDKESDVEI
T3 sequence (Q92769 whole entry): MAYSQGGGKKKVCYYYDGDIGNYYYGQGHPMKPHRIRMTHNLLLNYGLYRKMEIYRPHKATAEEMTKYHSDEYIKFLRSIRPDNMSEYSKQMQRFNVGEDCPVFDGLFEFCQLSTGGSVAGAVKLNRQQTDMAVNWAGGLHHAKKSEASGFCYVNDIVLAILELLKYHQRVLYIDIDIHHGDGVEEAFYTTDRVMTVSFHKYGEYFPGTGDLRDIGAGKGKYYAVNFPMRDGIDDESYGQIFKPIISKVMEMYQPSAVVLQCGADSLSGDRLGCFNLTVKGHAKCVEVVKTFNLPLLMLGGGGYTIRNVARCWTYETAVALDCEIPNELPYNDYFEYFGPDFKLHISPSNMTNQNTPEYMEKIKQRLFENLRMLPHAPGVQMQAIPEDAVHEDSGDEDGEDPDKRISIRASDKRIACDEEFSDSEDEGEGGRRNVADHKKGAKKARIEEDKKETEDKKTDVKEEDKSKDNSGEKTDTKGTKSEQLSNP
T2 sequence (Q13547 whole entry): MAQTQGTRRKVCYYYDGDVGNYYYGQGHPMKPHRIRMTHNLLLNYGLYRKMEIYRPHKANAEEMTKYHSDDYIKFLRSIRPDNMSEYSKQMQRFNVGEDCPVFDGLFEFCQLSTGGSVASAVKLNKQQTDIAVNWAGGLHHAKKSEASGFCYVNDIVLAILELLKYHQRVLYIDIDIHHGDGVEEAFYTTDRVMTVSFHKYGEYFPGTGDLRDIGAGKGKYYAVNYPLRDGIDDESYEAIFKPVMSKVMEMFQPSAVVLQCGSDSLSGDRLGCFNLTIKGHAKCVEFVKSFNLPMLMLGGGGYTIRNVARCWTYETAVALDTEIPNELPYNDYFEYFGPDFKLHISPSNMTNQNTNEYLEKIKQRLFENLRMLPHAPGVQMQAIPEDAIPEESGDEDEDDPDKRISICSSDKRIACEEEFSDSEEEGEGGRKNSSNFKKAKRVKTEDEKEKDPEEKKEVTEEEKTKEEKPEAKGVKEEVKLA

SMILES: C[C@@H]1NC(=O)[C@H]2CCCN2C(=O)[C@H](CCCCCC(=O)[C@@H]2CO2)NC(=O)[C@@H](C)NC1=O
TIME (Histone deacetylase 3 [10]): 1.39 h
K (Histone deacetylase 3 [11]): 0.12 min⁻¹
K (Histone deacetylase 3 [12]): 0.012 min⁻¹

SMILES: Nc1ccc(-c2ccco2)cc1NC(=O)c1ccc(-c2cn(CS(=O)(=O)c3ccccc3)nn2)cc1
TIME (Histone deacetylase 1 [20]): 2.42 h

SMILES: CC(=O)Nc1ccc(C(=O)Nc2ccccc2N)cc1
T1/2 (Histone deacetylase 2 [21]): 3.33 h
T1/2 (Histone deacetylase 1 [22]): > 23.1 h
T1/2 (Histone deacetylase 3 [23]): > 0.833 h
T1/2 (Histone deacetylase 2 [24]): > 2.32 h

SMILES: Cc1[nH]c2ccccc2c1CCNCc1ccc(/C=C/C(=O)NO)cc1
T1/2 (Histone deacetylase 3 [23]): > 1.05 h
T1/2 (Histone deacetylase 2 [24]): > 1670 h

SMILES: Nc1ccc(-c2ccncc2)cc1NC(=O)N1CCCC1
K (Histone deacetylase 1 [28]): 0.011 min⁻¹
K (Histone deacetylase 1 [29]): 3080 M⁻¹ s⁻¹

Second part, the compound after the results:

K (Histone deacetylase 3 [1]): 5000 M⁻¹ s⁻¹
T1/2 (Histone deacetylase 1 [2]): 2.5 min
Ratio IC50 (Homo sapiens [3]): > 17
Ratio IC50 (Homo sapiens [4]): > 17
K (Histone deacetylase 3 [5]): 0.009 min⁻¹
T1/2 (Histone deacetylase 2 [6]): 0.217 h
TIME (Histone deacetylase 2 [7]): 0.3 h
T1/2 (Histone deacetylase 3 [8]): 1.32 h
TIME (Histone deacetylase 3 [9]): 1.9 h
SMILES: CC(=O)Nc1ccc(C(=O)Nc2ccc(F)cc2N)cc1

Ki (Histone deacetylase 3 [13]): 1.4 nM
Ki [14]: 34 nM
K [15]: 0.006 min⁻¹
Ki [16]: ~1.2 nM
Ki (Histone deacetylase 3 [17]): 0.2 nM
TIME [18]: 2.92 h
TIME (Histone deacetylase 3 [10]): 4.17 h
K (Histone deacetylase 3 [11]): 0.26 min⁻¹
K [19]: 0.148 min⁻¹
K (Histone deacetylase 3 [12]): 0.004 min⁻¹
SMILES: O=C(CCCCC[C@@H]1NC(=O)[C@H]2CCCN2C(=O)[C@H](Cc2ccccc2)NC(=O)[C@H](Cc2ccccc2)NC1=O)NO (cyclo([Asu](NHOH)FF[dP]))

T1/2 (Histone deacetylase 2 [25]): > 80 h
T1/2 (Histone deacetylase 3 [26]): 20 h
half-life [27]: 6.44 h
SMILES: CC(=O)Nc1ccc(C(=O)Nc2cc(-c3cccs3)ccc2N)cc1

T1/2 (Histone deacetylase 1 [22]): > 0.433 h
T1/2 (Histone deacetylase 3 [23]): > 1670 h
Ki (Histone deacetylase 1 [30]): 0.88 nM
Ki (Histone deacetylase 1 [31]): ~0.02 nM
SMILES: C/C=C1\NC(=O)[C@H]2CSSCC/C=C/[C@H](CC(=O)N[C@H](C(C)C)C(=O)N2)OC(=O)[C@H](C(C)C)NC1=O [ROMIDEPSIN]
